The target of one assay is T1, Human HSP90 alpha (Homo sapiens, UniProt P07900).
T1 construct: made in house; host or cells: E. coli BL21 codon plus (Stratagene)
The assay is described as follows: Measurement of HSP90 enzyme inhibitory activity (ATPase, malachite green). The conditions noted are these: purified human HSP90 alpha, 1 mM ATP added, 37° C., two hours; read-out: Enzyme inhibitory activity (IC50, μM) Human HSP 90α. The class given is biochemical. As to the method: HSP90 enzyme inhibitory activity of the compounds of the present invention represented by formula (1) was measured by the following method. Among the 6-phenyl-N-phenyl-(1,3,5)triazin/(1,3)pyrimidin-2,4-diamine derivatives which are known LPAAT-β inhibitors, the following two compounds were used as comparative compounds, and their HSP90 enzyme inhibitory activities were measured similarly by the following method.
Introduction of pETHuHSP90a into E. coli (BL21 codon plus; Stratagene) was followed by O/N incubation in the presence of 0.1 mM IPTG, and the collected E. coli cells were disrupted by ultrasonication in a Lysis buffer (50 mM Tris-HCl (pH8.0), 10 mM MgCl2, 0.1% Triton X-100, Protease inhibitor cocktail tablets (Roche Diagnostics)). The cell lysate solution was centrifuged (10,000 rpm×30 minutes), and the supernatant obtained after centrifugation was used as a crude extract. The crude extract was fractionated using HisPrep FF column and HiTrap Q column (Amersham) to prepare a purified enzyme solution.
An enzyme solution for assays was prepared by dilution of the purified enzyme solution using an assay buffer (50 mM Tris HCl pH7.6, 20 mM KCl, 5 mM MgCl2).
10 μL each of various concentrations of the test substances (10% DMSO solution) was added to each well, and for the positive control wells, 10 μL of 10% DMSO was added. 10 μL of 10% DMSO was also added to the negative control well.
10 μL of 1 mM ATP was added to all of the wells, and the reaction was carried out at 37° C. for two hours.

A further assay has as its system HCT116 cells. Kind of assay: Measurement of cell growth inhibition (Cell Counting Kit-8, four days). As to conditions: Homo sapiens, HCT-116, 96 h; HCT116 colon cancer cell line, four days culture; read-out: Cell growth inhibitory activity (IC50, μM) HCT116. The class given is cell-based. As to the method:
Cell growth inhibitory activities of the compounds of the present invention represented by formula (1) were measured by the following method.
Cells were maintained under conditions recommended by the provider of each cell line. Cells suspended in a medium were added to solutions containing various concentrations of the test substance, and the cells were cultured at 37° C. in a 5% CO2 incubator. Four days later, Cell Counting Kit-8 was added, and absorbance measurements were taken following the protocol included in the kit.
In general terms: Formazan colour is commonly taken as a measure of viable cells.

As to `N#CCNC(=O)CSc1cc(-c2c(Cl)cc3c4c(cccc24)COC3)nc(N)n1` [Example 315, 2-[2-amino-6-(5-chloro-1H,3H-benzo[de]isochromen-6-yl)-pyrimidin-4-ylsulfanyl]-N-cyanomethyl-acetamide], the results for the IC50 on Human HSP90 alpha and in the assay with HCT116 cells were 1.9 µM and 2.1 µM, respectively.

Consider `Nc1nc(SC2CCCCC2)nc(-c2c(Cl)cc3c4c(cccc24)COC3)n1` [Example 92, 4-(5-chloro-1H,3H-benzo[de]isochromen-6-yl)-6-cyclohexylsulfanyl-[1,3,5]triazin-2-ylamine], for which the results for the IC50 at Human HSP90 alpha and with HCT116 cells were 1.1 µM and 9.2 µM, respectively.

For `CC(=O)NCCSc1nc(N)nc(-c2cc(-c3ncccn3)c(Cl)cc2Cl)n1` [Example 25, N-{2-[4-amino-6-(2,4-dichloro-5-pyrimidin-2-yl-phenyl)-[1,3,5]triazin-2-ylsulfanyl]-ethyl}-acetamide], the values for the IC50 on Human HSP90 alpha and with HCT116 cells were 2.6 µM and 0.66 µM, respectively.

For `CC(CSc1cc(-c2c(Cl)cc3c4c(cccc24)COC3)nc(N)n1)C(N)=O` (stereo not shown) [Example 321, 3-[2-amino-6-(5-chloro-1H,3H-benzo[de]isochromen-6-yl)-pyrimidin-4-ylsulfanyl]-2-methyl-propionamide], the IC50 (usually the concentration that inhibits the measured activity by half) on Human HSP90 alpha is 1.3 µM; in the assay on HCT116 cells, 0.13 µM.

`CNC(=O)CCSc1cc(-c2c(Cl)cc3c4c(cccc24)COC3)nc(N)n1` [Example 318, 3-[2-amino-6-(5-chloro-1H,3H-benzo[de]isochromen-6-yl)-pyrimidin-4-ylsulfanyl]-N-methyl-propionamide]: the IC50 worked out at 1.4 µM on Human HSP90 alpha and 0.22 µM in the assay on HCT116 cells.

Turning to `NC(=O)CCCSc1nc(N)nc(-c2c(Cl)cc3c4c(cccc24)CSC3)n1` [Example 343, 4-[4-amino-6-(5-chloro-1H,3H-2-thia-phenalen-6-yl)-[1,3,5]triazin-2-ylsulfanyl]-butyramide], the IC50 on Human HSP90 alpha is 1.8 µM; in the assay on HCT116 cells, 0.015 µM.

Consider `NC(=O)OCCSc1cc(-c2c(Cl)cc3c4c(cccc24)COC3)nc(N)n1` [Example 325, carbamic acid 2-[2-amino-6-(5-chloro-1H,3H-benzo[de]isochromen-6-yl)-pyrimidin-4-ylsulfanyl]-ethyl ester], for which the IC50 on Human HSP90 alpha amounted to 2.1 µM; in the assay on HCT116 cells, 0.26 µM.

For `CNC(=O)C(C)CSc1cc(-c2c(Cl)cc3c4c(cccc24)COC3)nc(N)n1` (stereo not shown) [Example 322, 3-[2-amino-6-(5-chloro-1H,3H-benzo[de]isochromen-6-yl)-pyrimidin-4-ylsulfanyl]-2,N-dimethyl-propionamide], the half-inhibitory concentration (IC50) at Human HSP90 alpha was determined as 1.7 µM; with HCT116 cells it was 0.08 µM.

As to `COc1ccc(Oc2nc(N)nc(-c3c(Cl)cc4c5c(cccc35)COC4)n2)cc1OC` [Example 82, 4-(5-chloro-1H,3H-benzo[de]isochromen-6-yl)-6-(3,4-dimethoxyphenoxy)-[1,3,5]triazin-2-ylamine], the results for the IC50 at Human HSP90 alpha and in the assay on HCT116 cells were 1.4 µM and 6.1 µM, respectively.

In the case of `CSc1nc(N)nc(-c2cc(-c3ncccn3)c(Cl)cc2Cl)n1` [Example 24, 4-(2,4-dichloro-5-pyrimidin-2-yl-phenyl)-6-methylsulfanyl-[1,3,5]triazin-2-ylamine], the half-inhibitory concentration (IC50) on Human HSP90 alpha amounted to 2.1 µM; with HCT116 cells it was 1 µM.

For the molecule `CS(=O)(=O)NCCSc1cc(-c2c(Cl)cc3c4c(cccc24)COC3)nc(N)n1` [Example 329, N-{2-[2-amino-6-(5-chloro-1H,3H-benzo[de]isochromen-6-yl)-pyrimidin-4-ylsulfanyl]-ethyl}-methanesulfonamide], the IC50 turned out to be 1 µM at Human HSP90 alpha and 0.31 µM in the assay with HCT116 cells.

`NC(=O)CCCSc1cc(-c2c(Cl)cc3c4c(cccc24)COC3)nc(N)n1` [Example 324, 4-[2-amino-6-(5-chloro-1H,3H-benzo[de]isochromen-6-yl)-pyrimidin-4-ylsulfanyl]-butylamide]: the 50% inhibitory concentration (IC50) turned out to be 1.8 µM on Human HSP90 alpha and 0.16 µM in the assay on HCT116 cells.

Turning to `CSc1nc(N)nc(-c2ccccc2)n1` [4-methylsulfanyl-6-phenyl-[1,3,5]triazin-2-ylamine, reference compound], the IC50 on Human HSP90 alpha stood at 33.8 µM.

For the origin of these results see US8193351B2, “HSP90 inhibitor” (Chugai Seiyaku Kabushiki Kaisha, priority 2006, dated 2012).
